In patent US12258328B2, “6-membered heteroaryl-containing aminopyridine compounds as EGFR inhibitors” (YUHAN CORPORATION, priority 2021, dated 2025):
Where two headings read alike, the source gives them in different places.

What was measured:
EGFR del19/T790M/C797S = EGFR del19/T790M/C797S (Homo sapiens, UniProt P00533, C797S/DEL746-750/T790M); experiment: Biochemical EGFR kinase assay (Lance Ultra TR-FRET), triple mutant del19/T790M/C797S
Method in brief: (§1)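 Kinase activity is measured by TR-FRET phosphopeptide detection. Compounds span 0.003 μM to 10 μM; the 1 h reaction at room temperature is quenched with EDTA, then labelled antibody (2 nM) is incubated 60 min before reading.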

EGFR L858R/C797S = EGFR L858R/C797S (Homo sapiens, UniProt P00533, C797S/L858R); experiment: Biochemical EGFR kinase assay (Lance Ultra TR-FRET), double mutant L858R/C797S
Method in brief: as §1

EGFR L858R/T790M/C797S = EGFR L858R/T790M/C797S (Homo sapiens, UniProt P00533, C797S/L858R/T790M); experiment: Biochemical EGFR kinase assay (Lance Ultra TR-FRET), triple mutant L858R/T790M/C797S
Method in brief: as §1

EGFR del19/C797S = EGFR del19/C797S (Homo sapiens, UniProt P00533, C797S/DEL746-750); experiment: Biochemical EGFR kinase assay (Lance Ultra TR-FRET), double mutant del19/C797S
Method in brief: as §1

EGFR wildtype = EGFR wildtype (Homo sapiens, UniProt P00533); experiment: Biochemical EGFR kinase assay (Lance Ultra TR-FRET), wildtype
Method in brief: as §1

[1] = IC50 del19/T790M/C797S, 100 μM ATP
[2] = IC50 L858R/T790M/C797S, 100 μM ATP
[3] = ATP at Km, read-out: IC50 del19/T790M/C797S, Km ATP
[4] = ATP at Km, read-out: IC50 L858R/C797S, Km ATP
[5] = ATP at Km, read-out: IC50 L858R/T790M/C797S, Km ATP
[6] = ATP at Km, read-out: IC50 del19/C797S, Km ATP
[7] = IC50 del19/T790M/C797S (nM) 100 μM ATP, 100 μM ATP
[8] = IC50 L858R/C797S (nM) 100 μM ATP, 100 μM ATP
[9] = IC50 L858R/T790M/C797S (nM) 100 μM ATP, 100 μM ATP
[10] = IC50 del19/C797S (nM) 100 μM ATP, 100 μM ATP
[11] = IC50 WT (nM) 100 μM ATP, 100 μM ATP
[12] = ATP at Km, read-out: IC50 WT, Km ATP
[13] = Km ATP, read-out: IC50 del19/T790M/C797S (nM) Km ATP
[14] = Km ATP, read-out: IC50 L858R/C797S (nM) Km ATP
[15] = Km ATP, read-out: IC50 L858R/T790M/C797S (nM) Km ATP
[16] = Km ATP, read-out: IC50 del19/C797S (nM) Km ATP
[17] = Km ATP, read-out: IC50 WT (nM) Km ATP

Sequence of EGFR wildtype (P00533 25-1210): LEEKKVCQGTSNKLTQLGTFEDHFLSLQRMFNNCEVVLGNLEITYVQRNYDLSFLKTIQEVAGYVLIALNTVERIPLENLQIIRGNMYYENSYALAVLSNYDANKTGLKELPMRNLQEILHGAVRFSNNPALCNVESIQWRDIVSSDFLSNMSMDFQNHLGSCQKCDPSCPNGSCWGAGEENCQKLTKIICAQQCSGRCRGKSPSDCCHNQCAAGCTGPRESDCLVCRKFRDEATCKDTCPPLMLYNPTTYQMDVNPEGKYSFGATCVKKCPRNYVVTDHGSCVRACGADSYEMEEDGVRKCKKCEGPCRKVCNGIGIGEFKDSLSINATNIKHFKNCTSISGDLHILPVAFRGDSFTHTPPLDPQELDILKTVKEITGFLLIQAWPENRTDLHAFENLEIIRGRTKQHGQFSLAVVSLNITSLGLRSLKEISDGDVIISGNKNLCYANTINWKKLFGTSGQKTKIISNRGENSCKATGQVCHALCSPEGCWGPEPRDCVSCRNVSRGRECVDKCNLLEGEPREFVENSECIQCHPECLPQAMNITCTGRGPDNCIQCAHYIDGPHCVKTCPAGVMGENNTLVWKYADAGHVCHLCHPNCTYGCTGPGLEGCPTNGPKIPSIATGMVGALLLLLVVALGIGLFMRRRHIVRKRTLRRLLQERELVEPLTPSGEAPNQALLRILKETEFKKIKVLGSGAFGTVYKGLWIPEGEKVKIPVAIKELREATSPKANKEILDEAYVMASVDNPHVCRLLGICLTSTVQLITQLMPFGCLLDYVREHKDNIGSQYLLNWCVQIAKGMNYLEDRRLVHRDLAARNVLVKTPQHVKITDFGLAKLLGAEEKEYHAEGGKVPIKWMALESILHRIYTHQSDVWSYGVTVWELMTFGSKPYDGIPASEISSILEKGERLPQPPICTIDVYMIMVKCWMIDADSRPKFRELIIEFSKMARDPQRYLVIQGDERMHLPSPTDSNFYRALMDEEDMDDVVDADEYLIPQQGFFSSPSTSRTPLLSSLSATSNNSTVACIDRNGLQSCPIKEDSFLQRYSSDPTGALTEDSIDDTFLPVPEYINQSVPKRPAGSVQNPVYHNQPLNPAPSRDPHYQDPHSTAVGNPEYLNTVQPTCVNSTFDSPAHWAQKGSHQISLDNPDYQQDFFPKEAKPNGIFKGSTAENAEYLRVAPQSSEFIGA
Sequence of EGFR L858R/T790M/C797S (P00533 25-1210 T790M/C797S/L858R): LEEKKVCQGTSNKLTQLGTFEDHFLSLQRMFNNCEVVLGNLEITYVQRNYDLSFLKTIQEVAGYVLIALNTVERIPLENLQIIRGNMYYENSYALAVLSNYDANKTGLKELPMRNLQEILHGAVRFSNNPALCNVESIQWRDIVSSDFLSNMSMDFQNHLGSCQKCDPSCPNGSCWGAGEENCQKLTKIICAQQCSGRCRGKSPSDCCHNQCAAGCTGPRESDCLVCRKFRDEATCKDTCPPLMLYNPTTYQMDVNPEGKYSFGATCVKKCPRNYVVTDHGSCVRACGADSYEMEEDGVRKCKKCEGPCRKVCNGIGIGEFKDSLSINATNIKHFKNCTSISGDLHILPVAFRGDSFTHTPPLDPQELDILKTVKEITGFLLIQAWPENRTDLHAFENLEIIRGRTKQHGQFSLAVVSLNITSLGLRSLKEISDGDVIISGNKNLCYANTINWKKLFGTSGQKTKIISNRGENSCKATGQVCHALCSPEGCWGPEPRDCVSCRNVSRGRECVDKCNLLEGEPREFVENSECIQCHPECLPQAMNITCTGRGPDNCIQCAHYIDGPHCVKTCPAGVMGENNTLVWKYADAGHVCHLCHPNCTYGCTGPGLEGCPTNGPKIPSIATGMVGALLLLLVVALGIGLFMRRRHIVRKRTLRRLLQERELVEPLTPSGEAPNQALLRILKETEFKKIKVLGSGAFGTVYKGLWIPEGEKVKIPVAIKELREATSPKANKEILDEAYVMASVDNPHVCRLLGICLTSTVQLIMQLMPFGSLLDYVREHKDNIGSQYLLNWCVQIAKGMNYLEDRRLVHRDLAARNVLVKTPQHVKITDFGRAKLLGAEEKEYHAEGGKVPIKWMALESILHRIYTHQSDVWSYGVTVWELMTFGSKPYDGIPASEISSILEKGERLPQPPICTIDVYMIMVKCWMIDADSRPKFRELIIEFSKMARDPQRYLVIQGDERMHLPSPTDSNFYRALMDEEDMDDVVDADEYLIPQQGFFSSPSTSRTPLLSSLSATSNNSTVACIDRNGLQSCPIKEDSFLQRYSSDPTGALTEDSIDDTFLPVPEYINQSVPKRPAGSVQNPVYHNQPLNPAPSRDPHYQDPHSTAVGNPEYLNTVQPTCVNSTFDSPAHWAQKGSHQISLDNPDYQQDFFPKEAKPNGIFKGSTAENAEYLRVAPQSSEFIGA
Sequence of EGFR del19/T790M/C797S (P00533 with tags, fused parts or gaps DEL746-750/T790M/C797S): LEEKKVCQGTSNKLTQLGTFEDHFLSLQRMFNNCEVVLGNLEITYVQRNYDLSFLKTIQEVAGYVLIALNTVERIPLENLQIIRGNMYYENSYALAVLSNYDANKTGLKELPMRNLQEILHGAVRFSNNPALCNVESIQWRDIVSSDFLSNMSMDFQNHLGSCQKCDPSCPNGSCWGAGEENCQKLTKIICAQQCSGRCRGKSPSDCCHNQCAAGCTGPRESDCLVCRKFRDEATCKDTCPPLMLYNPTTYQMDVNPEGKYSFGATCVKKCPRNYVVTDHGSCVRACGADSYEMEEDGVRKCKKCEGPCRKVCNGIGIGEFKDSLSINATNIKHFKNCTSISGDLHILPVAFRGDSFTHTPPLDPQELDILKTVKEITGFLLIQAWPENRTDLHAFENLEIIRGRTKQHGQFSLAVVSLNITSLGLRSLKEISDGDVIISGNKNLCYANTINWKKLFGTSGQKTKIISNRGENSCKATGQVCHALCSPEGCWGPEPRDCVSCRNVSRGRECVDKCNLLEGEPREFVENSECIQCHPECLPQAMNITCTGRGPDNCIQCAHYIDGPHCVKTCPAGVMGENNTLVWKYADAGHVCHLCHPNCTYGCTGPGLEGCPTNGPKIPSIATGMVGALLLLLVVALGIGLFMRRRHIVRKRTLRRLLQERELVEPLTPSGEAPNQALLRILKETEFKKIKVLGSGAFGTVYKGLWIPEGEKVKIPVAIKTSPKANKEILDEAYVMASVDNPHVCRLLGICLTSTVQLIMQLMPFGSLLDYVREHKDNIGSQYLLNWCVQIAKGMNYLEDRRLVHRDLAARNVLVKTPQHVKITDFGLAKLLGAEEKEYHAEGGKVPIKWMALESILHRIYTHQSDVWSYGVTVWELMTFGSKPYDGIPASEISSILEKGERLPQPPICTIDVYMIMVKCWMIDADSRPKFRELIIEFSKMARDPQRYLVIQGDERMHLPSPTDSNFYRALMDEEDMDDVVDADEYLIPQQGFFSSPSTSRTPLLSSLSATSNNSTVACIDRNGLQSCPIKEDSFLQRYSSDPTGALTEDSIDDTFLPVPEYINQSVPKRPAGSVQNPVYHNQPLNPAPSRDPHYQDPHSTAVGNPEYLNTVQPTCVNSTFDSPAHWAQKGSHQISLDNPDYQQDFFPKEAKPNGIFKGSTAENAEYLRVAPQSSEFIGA
Sequence of EGFR del19/C797S (P00533 with tags, fused parts or gaps DEL746-750/C797S): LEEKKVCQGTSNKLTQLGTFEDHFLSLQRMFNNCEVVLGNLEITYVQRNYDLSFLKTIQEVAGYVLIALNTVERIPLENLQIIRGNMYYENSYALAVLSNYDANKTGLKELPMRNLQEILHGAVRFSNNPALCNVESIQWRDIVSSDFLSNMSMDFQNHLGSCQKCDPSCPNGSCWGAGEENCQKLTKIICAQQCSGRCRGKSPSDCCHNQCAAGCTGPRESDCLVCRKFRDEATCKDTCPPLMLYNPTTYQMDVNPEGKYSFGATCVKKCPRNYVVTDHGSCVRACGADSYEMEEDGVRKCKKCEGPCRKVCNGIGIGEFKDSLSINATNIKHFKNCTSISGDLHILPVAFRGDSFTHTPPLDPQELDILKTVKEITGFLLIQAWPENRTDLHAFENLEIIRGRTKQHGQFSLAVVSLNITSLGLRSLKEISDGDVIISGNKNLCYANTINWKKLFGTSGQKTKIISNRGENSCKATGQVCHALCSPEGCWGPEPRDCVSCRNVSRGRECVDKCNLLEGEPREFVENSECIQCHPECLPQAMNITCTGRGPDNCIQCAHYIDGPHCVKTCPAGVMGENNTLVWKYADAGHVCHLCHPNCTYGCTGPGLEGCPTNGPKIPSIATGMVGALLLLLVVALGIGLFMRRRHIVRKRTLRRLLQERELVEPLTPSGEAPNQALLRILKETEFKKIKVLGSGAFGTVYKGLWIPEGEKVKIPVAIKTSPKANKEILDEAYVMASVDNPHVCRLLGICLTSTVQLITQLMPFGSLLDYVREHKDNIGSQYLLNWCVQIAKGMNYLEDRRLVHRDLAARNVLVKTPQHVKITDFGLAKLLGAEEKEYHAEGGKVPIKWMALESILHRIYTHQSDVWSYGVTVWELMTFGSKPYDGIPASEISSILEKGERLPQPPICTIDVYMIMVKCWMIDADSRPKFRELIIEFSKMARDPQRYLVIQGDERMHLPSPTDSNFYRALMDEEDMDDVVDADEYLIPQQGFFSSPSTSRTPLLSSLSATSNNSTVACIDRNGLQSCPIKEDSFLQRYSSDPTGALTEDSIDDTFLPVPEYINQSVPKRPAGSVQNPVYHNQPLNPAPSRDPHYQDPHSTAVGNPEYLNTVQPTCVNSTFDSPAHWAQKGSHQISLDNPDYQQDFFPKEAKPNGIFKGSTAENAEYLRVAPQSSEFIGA

Row | Compound | IC50 (EGFR del19/T790M/C797S; [1]) | IC50 (EGFR L858R/C797S; IC50 L858R/C797S, 100 μM ATP) | IC50 (EGFR L858R/T790M/C797S; [2]) | IC50 (EGFR del19/C797S; IC50 del19/C797S, 100 μM ATP) | IC50 (EGFR wildtype; IC50 WT, 100 μM ATP) | IC50 (EGFR del19/T790M/C797S; [3]) | IC50 (EGFR L858R/C797S; [4]) | IC50 (EGFR L858R/T790M/C797S; [5]) | IC50 (EGFR del19/C797S; [6]) | IC50 (EGFR del19/T790M/C797S; [7]) | IC50 (EGFR L858R/C797S; [8]) | IC50 (EGFR L858R/T790M/C797S; [9]) | IC50 (EGFR del19/C797S; [10]) | IC50 (EGFR wildtype; [11]) | IC50 (EGFR wildtype; [12]) | IC50 (EGFR del19/T790M/C797S; [13]) | IC50 (EGFR L858R/C797S; [14]) | IC50 (EGFR L858R/T790M/C797S; [15]) | IC50 (EGFR del19/C797S; [16]) | IC50 (EGFR wildtype; [17])
1 | C[C@]1(O)CC[C@@H](Nc2cc(Nc3ccnc(-c4cnn(S(=O)(=O)C5CC5)c4)n3)ncc2-c2cc(NC3CC(F)(F)C3)ccn2)CC1 [Example 280, (1s,4s)-4-((6′-((2-(1-(Cyclopropylsulfonyl)-1H-pyrazol-4-yl)pyrimidin-4-yl)amino)-4-((3,3-difluorocyclobutyl)amino)-[2,3′-bipyridin]-4′-yl)amino)-1-methylcyclohexan-1-ol] | 1 nM | 20.3 nM | 0.5 nM | 2.7 nM | > 10000 nM |  |  |  |  |  |  |  |  |  |  |  |  |  |  | 
2 | CN(C)S(=O)(=O)c1ccc(-c2cnc(Nc3ccnc(-c4cnn(S(=O)(=O)C5CC5)c4)n3)cc2N[C@H]2CC[C@@H](C(C)(C)O)CC2)nc1 [Example 165, 6′-((2-(1-(Cyclopropylsulfonyl)-1H-pyrazol-4-yl)pyrimidin-4-yl)amino)-4′-(((1s,4s)-4-(2-hydroxypropan-2-yl)cyclohexyl)amino)-N,N-dimethyl-[2,3′-bipyridine]-5-sulfonamide] | 1.2 nM | 18.5 nM | 1.7 nM | 7.6 nM | > 10000 nM | 3.5 nM | 1.6 nM | 1 nM | 1.8 nM |  |  |  |  |  |  |  |  |  |  | 
3 | CC(C)(O)[C@H]1CC[C@@H](Nc2cc(Nc3ccnc(-c4cnn(S(=O)(=O)C5CC5)c4)n3)ncc2-c2ccc(N3CCC(F)(F)CC3)nn2)CC1 [Example 71, 2-((1s,4s)-4-((2-((2-(1-(Cyclopropylsulfonyl)-1H-pyrazol-4-yl)pyrimidin-4-yl)amino)-5-(6-(4,4-difluoropiperidin-1-yl)pyridazin-3-yl)pyridin-4-yl)amino)cyclohexyl)propan-2-ol] |  |  |  |  |  |  |  |  |  | 4.5 nM | 355 nM | 4.1 nM | 44.2 nM | > 10000 nM |  |  |  |  |  | 
4 | CN1CCC(Oc2ccc(-c3cnc(Nc4ccnc(-c5cnn(S(=O)(=O)C6CC6)c5)n4)cc3NC3CCCN(CCF)C3)nc2)CC1 (stereo not drawn) [Example 257, N^6′-(2-(1-(Cyclopropylsulfonyl)-1H-pyrazol-4-yl)pyrimidin-4-yl)-N^4′-(1-(2-fluoroethyl)piperidin-3-yl)-5-((1-methylpiperidin-4-yl)oxy)-[2,3′-bipyridine]-4′,6′-diamine] |  |  |  |  |  | 0.4 nM | 0.4 nM | 0.2 nM | 1 nM |  |  |  |  |  | 7.4 nM |  |  |  |  | 
5 | COc1c(F)ccnc1-c1cnc(Nc2ccnc(-c3cnn(CC(F)F)c3)n2)cc1N[C@H]1CC[C@@](C)(O)CC1 [Example 336, (1s,4s)-4-((6′-((2-(1-(2,2-Difluoroethyl)-1H-pyrazol-4-yl)pyrimidin-4-yl)amino)-4-fluoro-3-methoxy-[2,3′-bipyridin]-4′-yl)amino)-1-methylcyclohexan-1-ol] |  |  |  |  |  |  |  |  |  |  |  |  |  |  |  | 345 nM | 1670 nM | 43.9 nM | 3820 nM | 235 nM
6 | CC(C)(F)c1ccc(-c2cnc(Nc3ccnc(-c4cnn(S(=O)(=O)C5CC5)c4)n3)cc2NC2CCC(F)(F)CC2)nc1 [Example 240, N^6′-(2-(1-(Cyclopropylsulfonyl)-1H-pyrazol-4-yl)pyrimidin-4-yl)-N^4′-(4,4-difluorocyclohexyl)-5-(2-fluoropropan-2-yl)-[2,3′-bipyridine]-4′,6′-diamine] |  |  |  |  |  | 19.8 nM | 15.4 nM | 5.9 nM | 134 nM |  |  |  |  |  | 733 nM |  |  |  |  | 
7 | O=S(=O)(C1CC1)n1cc(-c2nccc(Nc3cc(N[C@H]4CC[C@@H](NCCF)CC4)c(-c4ccccn4)cn3)n2)cn1 [Example 36, N^6′-(2-(1-(Cyclopropylsulfonyl)-1H-pyrazol-4-yl)pyrimidin-4-yl)-N^4′-((1s,4s)-4-((2-fluoroethyl)amino)cyclohexyl)-[2,3′-bipyridine]-4′,6′-diamine] |  |  |  |  |  |  |  |  |  | 0.2 nM | 15.7 nM | 0.1 nM | 0.9 nM | 3080 nM |  | 0.1 nM | 1 nM | 0.1 nM | 0.5 nM | 5.8 nM
8 | CN(C)C[C@H]1CC[C@@H](Nc2cc(Nc3ccnc(-c4cnn(S(=O)(=O)C5CC5)c4)n3)ncc2-c2cnc(N3CCC(F)(F)CC3)cn2)CC1 [Example 74, N^2-(2-(1-(Cyclopropylsulfonyl)-1H-pyrazol-4-yl)pyrimidin-4-yl)-5-(5-(4,4-difluoropiperidin-1-yl)pyrazin-2-yl)-N^4-((1s,4s)-4-((dimethylamino)methyl)cyclohexyl)pyridine-2,4-diamine] |  |  |  |  |  |  |  |  |  | 2.2 nM | 43.9 nM | 2.8 nM | 2.4 nM | 1610 nM |  | 1.6 nM | 3.2 nM | 0.6 nM | 0.7 nM | 9.1 nM
9 | COC(c1ccc(-c2cnc(Nc3ccnc(-c4cnn(S(=O)(=O)C5CC5)c4)n3)cc2NC2CCC(CO)CC2)nc1)C(F)(F)F (stereo not drawn) [Example 261, ((1s,4s)-4-((6′-((2-(1-(Cyclopropylsulfonyl)-1H-pyrazol-4-yl)pyrimidin-4-yl)amino)-5-(2,2,2-trifluoro-1-methoxyethyl)-[2,3′-bipyridin]-4′-yl)amino)cyclohexyl)methanol] |  |  |  |  |  | 9.6 nM | 7.5 nM | 4.1 nM | 10.3 nM |  |  |  |  |  | 9.2 nM |  |  |  |  | 
10 | CC(C)(F)c1ccc(-c2cnc(Nc3ccnc(-c4cnn(S(=O)(=O)C5CC5)c4)n3)cc2N[C@H]2CC[C@@H](CO)CC2)nc1 [Example 235, ((1s,4s)-4-((6′-((2-(1-(Cyclopropylsulfonyl)-1H-pyrazol-4-yl)pyrimidin-4-yl)amino)-5-(2-fluoropropan-2-yl)-[2,3′-bipyridin]-4′-yl)amino)cyclohexyl)methanol] |  | 8.1 nM | 2.7 nM |  | 692 nM | 1 nM | 1 nM | 0.8 nM | 3.1 nM |  |  |  |  |  | 4.9 nM |  |  |  |  | 
11 | C[C@]1(O)CC[C@@H](Nc2cc(Nc3ccnc(-c4cnn(S(=O)(=O)C5CC5)c4)n3)ncc2-c2cccc(NCCO)n2)CC1 [Example 285, (1s,4s)-4-((6′-((2-(1-(Cyclopropylsulfonyl)-1H-pyrazol-4-yl)pyrimidin-4-yl)amino)-6-((2-hydroxyethyl)amino)-[2,3′-bipyridin]-4′-yl)amino)-1-methylcyclohexan-1-ol] | 0.2 nM | 14.1 nM | 0.2 nM | 0.9 nM | 6310 nM | 0.1 nM | 0.5 nM |  | 0.4 nM |  |  |  |  |  | 7.8 nM |  |  |  |  | 
12 | CC(C)(F)c1ccc(-c2cnc(Nc3ccnc(-c4cnn(S(=O)(=O)C5CC5)c4)n3)cc2N[C@H]2CC[C@@H](F)CC2)nc1 [Example 238, N^6′-(2-(1-(Cyclopropylsulfonyl)-1H-pyrazol-4-yl)pyrimidin-4-yl)-N^4′-((1s,4s)-4-fluorocyclohexyl)-5-(2-fluoropropan-2-yl)-[2,3′-bipyridine]-4′,6′-diamine] |  |  |  |  |  | 28.4 nM | 18.7 nM | 9.2 nM | 95.1 nM |  |  |  |  |  | 317 nM |  |  |  |  | 
13 | C[C@]1(O)CC[C@@H](Nc2cc(Nc3ccnc(-c4cnn(S(=O)(=O)C5CC5)c4)n3)ncc2-c2cc(N3CCOCC3)ccn2)CC1 [Example 48, (1s,4s)-4-((6′-((2-(1-(Cyclopropylsulfonyl)-1H-pyrazol-4-yl)pyrimidin-4-yl)amino)-4-morpholino-[2,3′-bipyridin]-4′-yl)amino)-1-methylcyclohexan-1-ol] |  |  |  |  |  |  |  |  |  | 0.6 nM | 83.3 nM | 2.1 nM | 5.8 nM | > 10000 nM |  | 0.5 nM | 14.1 nM | 0.3 nM |  | 24.7 nM
14 | CC(C)Nc1cc(Nc2ccnc(-c3cnn(S(=O)(=O)C4CC4)c3)n2)ncc1-c1cnc(OC(F)F)cn1 [Example 127, N^2-(2-(1-(Cyclopropylsulfonyl)-1H-pyrazol-4-yl)pyrimidin-4-yl)-5-(5-(difluoromethoxy)pyrazin-2-yl)-N^4-isopropylpyridine-2,4-diamine] |  |  |  |  |  |  |  |  |  |  |  |  |  |  |  | 17.5 nM | > 10000 nM | 6.6 nM | > 10000 nM | > 10000 nM
15 | O=S(=O)(C1CC1)n1cc(-c2nccc(Nc3cc(N[C@H]4CC[C@@H](CO)CC4)c(-c4cc(OCCN5CCOCC5)ccn4)cn3)n2)cn1 [Example 212, ((1s,4s)-4-((6′-((2-(1-(Cyclopropylsulfonyl)-1H-pyrazol-4-yl)pyrimidin-4-yl)amino)-4-(2-morpholinoethoxy)-[2,3′-bipyridin]-4′-yl)amino)cyclohexyl)methanol] | 1 nM | 18.7 nM | 0.6 nM | 2.7 nM | 7860 nM | 0.5 nM | 0.5 nM | 0.4 nM | 1.2 nM |  |  |  |  |  | 3.4 nM |  |  |  |  | 
